Values after ≈ are worked out from the molar mass of the structure shown.

What all share (assay type): cell-based
The subject of assay [1] is Aspergillus flavus AFL1 (ATCC MYA-3631). As to the kind of experiment: Fungal MIC Protocol, Aspergillus flavus. The settings on record: Aspergillus flavus; 100% growth inhibition at 48 hours; read-out: MIC Aspergillus flavus 3631. Summed up:
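Aspergillus flavus spores were grown on Potato Dextrose Agar at 35° C. for 3-5 days, harvested in PBS pH 7.4+0.1% Tween-20 with glass beads, and diluted in RPMI/MOPS to an OD530 of 0.002 (about 2×10^4 cfu/mL). 50 ul of spores were combined with 50 μl of serially diluted compound in 96-well round bottom plates and incubated at 35° C. for 48 hours.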

The subject of assay [2] is Aspergillus fumigatus T33439 (ATCC MYA-3626). As to the kind of experiment: Fungal MIC Protocol, Aspergillus fumigatus. The settings on record: Aspergillus fumigatus; 100% growth inhibition at 48 hours; read-out: MIC Aspergillus fumigatus 3626. Summed up: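 Aspergillus fumigatus was grown on Potato Dextrose Agar at 35° C. for 3-5 days, and spores were collected with PBS pH 7.4+0.1% Tween-20 plus glass beads. Spores were diluted in RPMI/MOPS to OD530 0.002 (about 2×10^4 cfu/mL). 50 ul was added to 50 μl of serially diluted compound in round bottom 96-well plates, run in duplicate, and incubated at 35° C. for 48 hours.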

The test system of assay [3] is Fusarium falciforme FS1 (ATCC MYA-3636). As to the kind of experiment: Fungal MIC Protocol, Fusarium falciforme. The settings on record: Fusarium falciforme; 100% growth inhibition at 48 hours; read-out: MIC Fusarium falciforme 3636. Summed up: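 Fusarium falciforme spores were raised on Potato Dextrose Agar at 35° C. for 3-5 days, collected in PBS pH 7.4+0.1% Tween-20 with glass beads, and diluted in RPMI/MOPS pH 7.0 to OD530 0.005 (about 2×10^4 cfu/mL). 50 ul spores were added to 50 μl duplicate serial compound dilutions in round bottom 96-well plates and incubated at 35° C. for 48 hours.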

The test system of assay [4] is Fusarium solani (ATCC 58877). Nature of the assay: Fungal MIC Protocol, Fusarium solani. The settings on record: Fusarium solani, ATCC58877; 100% growth inhibition at 48 hours; read-out: MIC Fusarium solani 58877. The method, boiled down:
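Fusarium solani spores were grown on Potato Dextrose Agar in tissue culture flasks at 35° C. for 3-5 days, harvested with PBS pH 7.4+0.1% Tween-20 and glass beads, and diluted in RPMI/MOPS to an OD530 of 0.005 (about 2×10^4 cfu/mL). Equal 50 ul volumes of spores and serially diluted compound were combined in 96-well round bottom plates and incubated 48 hours at 35° C.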

Assay [5] has as its system Mucor circinelloides 1463(62) (ATCC 26759). Nature of the assay: Fungal MIC Protocol, Mucor circinelloides (MIC-50). The settings on record: Mucor circinelloides, ATCC26759; 50% growth inhibition at 48 hours; read-out: MIC-50 Mucorales circinelloides 26579. Summed up: (§1)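 Harvested spores, adjusted by OD530 to about 2×10^4 cfu/mL in RPMI/MOPS pH 7.0, are mixed with ten duplicate serial dilutions of compound. Incubation runs 48 h at 35° C before visual scoring of the lowest concentration inhibiting growth >50%.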

Assay [6] has as its system Mucor ramosissimus 057718 (ATCC 90286). As to the kind of experiment: Fungal MIC Protocol, Mucor ramosissimus (MIC-50). The settings on record: Mucor ramosissimus, ATCC90286; 50% growth inhibition at 48 hours; read-out: MIC-50 Mucorales ramosissimus 90286. Summed up:
as §1

For another assay, the system named is Candida albicans GDH2346. Nature of the assay: Candida Minimal Inhibitory Concentration (MIC). The settings on record: Candida albicans, GDH2346; 50% growth inhibition at 48 hours; read-out: MIC-50 Candida albicans GDH2346. The method, boiled down:
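Twofold serial dilutions from 200 μg/mL in RPMI 1640/MOPS with glucose, pH 7.0, tested in duplicate against yeast from an OD600 1.0 suspension diluted 1:1000. Incubated at 35° C; OD600 read at 24 and 48 h.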

On to `N=C(N)NCCn1c(-c2ccc(C3=CCN(C(=N)N)CC3)cc2F)nnc1-c1ccc(C2=CCN(C(=N)N)CC2)cc1F` [Example 16, 4,4′-(4,4′-(4-(2-guanidinoethyl)-4H-1,2,4-triazole-3,5-diyl)bis(3-fluoro-4,1-phenylene))bis(5,6-dihydropyridine-1(2H)-carboximidamide)], for which the MIC was 0.39 µg/mL (≈ 0.663 µM) in assay [1], 0.39 µg/mL (≈ 0.663 µM) in assay [2], less than 0.1 µg/mL in assay [3] and less than 0.1 µg/mL in assay [4]. The figures for the MIC50 (in assay [5]; in assay [6]; in the assay with Candida albicans GDH2346) were 12.5 µg/mL (≈ 21.2 µM), more than 100 µg/mL and 0.39 µg/mL (≈ 0.663 µM), respectively.

On to `Cn1c(-c2ccc(C3CCN(C(=N)N)CC3)cc2)nnc1-c1ccc(C2CCN(C(=N)N)CC2)cc1` [Example 39, 4,4′-(4,4′-(4-Methyl-4H-1,2,4-triazole-3,5-diyl)bis(4,1-phenylene))dipiperidine-1-carboximidamide], for which the minimum inhibitory concentration (MIC) in assay [1] worked out at 1.56 µg/mL (≈ 3.21 µM); in assay [2] it was 1.56 µg/mL (≈ 3.21 µM); in assay [3] it was 0.78 µg/mL (≈ 1.61 µM); in assay [4], 0.78 µg/mL (≈ 1.61 µM). Moreover, the MIC50 in assay [5] is more than 100 µg/mL; in assay [6], more than 100 µg/mL; in the assay on Candida albicans GDH2346 it was 0.78 µg/mL (≈ 1.61 µM).

With `CCOCCOCCn1c(-c2ccc(C3=CCN(C(=N)N)CC3)cc2F)nnc1-c1ccc(C2=CCN(C(=N)N)CC2)cc1F` [Example 9, 4,4′-(4,4′-(4-(2-(2-Ethoxyethoxy)ethyl)-4H-1,2,4-triazole-3,5-diyl)bis(3-fluoro-4,1-phenylene))bis(5,6-dihydropyridine-1(2H)-carboximidamide)], the minimum inhibitory concentration (MIC) in assay [1] was 0.39 µg/mL (≈ 0.629 µM); in assay [2] it was 0.2 µg/mL (≈ 0.323 µM); in assay [3] it was 0.2 µg/mL (≈ 0.323 µM); in assay [4], 0.2 µg/mL (≈ 0.323 µM). For the same compound, the MIC50 was 3.13 µg/mL (≈ 5.05 µM) in assay [5], 3.13 µg/mL (≈ 5.05 µM) in assay [6] and less than 0.1 µg/mL with Candida albicans GDH2346.

Turning to `Cc1cc(C2=CCN(C(=N)N)CC2)ccc1-c1cn(-c2ccc(C3=CCN(C(=N)N)CC3)cc2)nn1` [Example 36, 4-(4-(4-(4-(1-Carbamimidoyl-1,2,3,6-tetrahydropyridin-4-yl)-2-methylphenyl)-1H-1,2,3-triazol-1-yl)phenyl)-5,6-dihydropyridine-1(2H)-carboximidamide], the MIC turned out to be 0.2 µg/mL (≈ 0.415 µM) in assay [1], 0.2 µg/mL (≈ 0.415 µM) in assay [2], 0.1 µg/mL (≈ 0.208 µM) in assay [3] and 0.2 µg/mL (≈ 0.415 µM) in assay [4]. Also, the values for the MIC50 (in assay [5]; in assay [6]; in the assay with Candida albicans GDH2346) were 0.78 µg/mL (≈ 1.62 µM), 3.13 µg/mL (≈ 6.5 µM) and 0.39 µg/mL (≈ 0.81 µM), respectively.

With `Cn1c(-c2ccc(C3=CCN(C(=N)N)C3)cc2)nnc1-c1ccc(C2=CCN(C(=N)N)C2)cc1` [Example 29], the MIC in assay [1] is 0.39 µg/mL (≈ 0.86 µM); in assay [2], less than 0.1 µg/mL; in assay [3] it was less than 0.1 µg/mL; in assay [4], 0.39 µg/mL (≈ 0.86 µM). In addition, the figures for the MIC50 (in assay [5]; in assay [6]; in the assay on Candida albicans GDH2346) were 6.25 µg/mL (≈ 13.8 µM), 6.25 µg/mL (≈ 13.8 µM) and 1.56 µg/mL (≈ 3.44 µM), respectively.

As for `Cc1cc(-n2nnc(-c3ccc(C4=CCN(C(=N)N)CC4)cc3)c2C)ccc1C1=CCN(C(=N)N)CC1` [Example 33, 4-(4-{4-[4-(1-Carbamimidoyl-1,2,3,6-tetrahydropyridin-4-yl)phenyl]-5-methyl-1H-1,2,3-triazol-1-yl}-2-methylphenyl)-1,2,3,6-tetrahydropyridne-1-carboximidamide], the MIC came out at 0.04 µg/mL (≈ 0.0807 µM) in assay [1], 0.63 µg/mL (≈ 1.27 µM) in assay [2], 0.05 µg/mL (≈ 0.101 µM) in assay [3] and 0.025 µg/mL (≈ 0.0504 µM) in assay [4]. Besides, the MIC50 is 3.13 µg/mL (≈ 6.32 µM) in assay [5], 12.5 µg/mL (≈ 25.2 µM) in assay [6] and 0.08 µg/mL (≈ 0.161 µM) in the assay on Candida albicans GDH2346.
